In US20230233500A1, “Gasdermin D (GSDMD) Succination for the Treatment of Inflammatory Disease” (University of Massachusetts, priority 2020, published 2023):
Where a name gives a salt, the structure may show the parent alone.

What was measured:
GSDMD = biological target: T1, GSDMD (Mus musculus, UniProt Q9D8T2); test: MMF-Yne click chemistry labeling and streptavidin pulldown in BMDM lysates; assay type: binding
T1 construct: We also immunoprecipitated GSDMD from fumarate treated BMDMs; endogenous in cells; host or cells: primary mouse BMDMs
T1 sequence (Q9D8T2 1-487): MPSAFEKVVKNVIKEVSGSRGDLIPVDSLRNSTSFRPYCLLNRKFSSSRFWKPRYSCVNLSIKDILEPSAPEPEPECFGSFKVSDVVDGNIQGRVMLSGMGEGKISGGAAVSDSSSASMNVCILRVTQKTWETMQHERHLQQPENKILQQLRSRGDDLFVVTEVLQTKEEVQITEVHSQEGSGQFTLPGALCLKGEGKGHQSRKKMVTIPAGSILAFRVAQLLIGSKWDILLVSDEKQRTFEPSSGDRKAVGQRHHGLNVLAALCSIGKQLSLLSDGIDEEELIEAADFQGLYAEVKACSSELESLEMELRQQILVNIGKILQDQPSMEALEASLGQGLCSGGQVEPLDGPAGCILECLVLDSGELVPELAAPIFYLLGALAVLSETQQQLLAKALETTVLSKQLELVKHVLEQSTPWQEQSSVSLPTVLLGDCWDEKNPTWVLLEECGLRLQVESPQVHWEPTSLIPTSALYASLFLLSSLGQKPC
Method: FIG. 10. Illustrative schematic of click-chemistry based proteomics. Schematic representation of MMF-Yne proteomics. Primary WT BMDMs were treated with LPS for 2 hrs, MMF-Yne for 1 hour and nigericin (10 μM) for 1 hour. Lysates were subsequently Cu2+ clicked using a biotin-azide and streptavidin beads for pulldown of MMF-Yne interacting proteins. Streptavidin beads were digested using trypsin, reduced and alkylated and subjected to mass spec analysis.
Cells treated with or without the MMF-Alkyne probe were lysed and quantified by protein DC assay. Proteome samples (2 mg/ml) were incubated with TCEP, TBTA ligand, copper sulphate and Biotin Azide for 1 hour at room temperature with vortexing every 15 minutes. Precipitated proteins were centrifuged for 5 minutes at 4,600 g. Protein pellets were washed twice with ice cold methanol and sonicated in 1.2% SDS. Samples were heated at 95° C. for 5 minutes and diluted to a final volume of […] with PBS (0.2% SDS). An aliquot of the post-clicked lysate was retained and the remainder was incubated with streptavidin beads on a rotator overnight at 4 C. Samples were rotated at room temperature for 2 hours to resolubilize the SDS. Beads were washed five times with 0.2% SDS/PBS and placed on a rotator for 10 minutes in between washes. Beads were washed with ultra-pure water a further 3 times. […]

GSDMD-N = biological target: T2, GSDMD-N (Mus musculus, UniProt Q9D8T2); test: GSDMD-N induced LDH release in HEK293T cells; assay type: cell-based; settings: transfected HEK293T cells
T2 construct: Caspase cleavage of GSDMD liberates an N-terminal pore forming fragment (GSDMD-N, p30); host or cells: HEK293T
T2 sequence (Q9D8T2 1-276 limits assumed): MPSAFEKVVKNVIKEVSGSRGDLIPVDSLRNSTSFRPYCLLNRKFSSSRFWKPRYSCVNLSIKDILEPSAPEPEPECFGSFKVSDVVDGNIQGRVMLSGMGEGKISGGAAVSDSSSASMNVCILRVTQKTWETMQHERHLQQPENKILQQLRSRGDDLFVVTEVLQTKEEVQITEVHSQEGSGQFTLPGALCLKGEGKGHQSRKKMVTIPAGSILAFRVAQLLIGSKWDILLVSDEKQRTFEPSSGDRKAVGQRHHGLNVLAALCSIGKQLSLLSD
Excerpt: FIGS. 2A-J. Succination of GSDMD inhibits pyroptosis. Immunoblot of GSDMD in streptavidin pulldown from clicked lysates treated as indicated (A-B). Representative MS spectra of 2-monomethyl and 2-dimethylsuccination of GSDMD immunoprecipitated from fumarate treated BMDMs (C-D). Immunoblot of GSDMD in clicked lysates from transfected HEK293T. Cell death of HEK293T transfected as indicated (F-H). Immunoblots of casplp20 and GSDMD in BMDMs (I). Immunoblots of an in vitro binding assay of succinated and non-succinated GSDMD incubated with caspase 1 beads (J). A, B, F, J, […] representative images from three independent experiments. C, D, E, representative mass spec spectra from two independent experiments. H, I pooled data from three independent experiments. ***, P<0.001 (One-way anova). Error bars show means±SEM.
Cells were plated, treated and incubated in phenol red free medium. Following treatment medium was collected and assessed for LDH release using the CytoTox96 non-radioactive cytotoxicity assay (Promega) as per manufacturer's instructions. […]
Primary BMDMs from WT or GsdmD^−/− mice were cultured in 12-well plates (1×10^6 cells per ml; 1 ml) or 10 cm dishes (2×10^6 cells per ml; 10 ml). […] Samples were resolved by SDS-PAGE and stained using simply blue safe stain or transferred to nitrocellulose membranes and analyzed by immunoblot. […]

EAE in WT mice = test: Experimental autoimmune encephalomyelitis (EAE); assay type: in vivo, mouse
[1] = flow cytometry, spinal cord and brain

COC(=O)/C=C/C(=O)OC [Fumarate, Dimethyl fumarate]
inhibited: GSDMD-N induced LDH release (GSDMD-N)
reduced: MMF-Yne signal in pyroptotic lysates in presence of unlabeled competitor (GSDMD; streptavidin-IR dye immunoblot) | Th1 (IFN-γ+) cells in the CNS (EAE in WT mice; flow cytometry) | Th17 (IL-17A+) cells in the CNS (EAE in WT mice; flow cytometry) | neuropathology (EAE in WT mice; spinal cord sections) | demyelination (EAE in WT mice; spinal cord sections, LFB) | GSDMD-N in CNS tissue (EAE in WT mice; spinal cord, staining and immunoblot)
reduced infiltration: infiltration of CD4+ T-cells to the CNS (EAE in WT mice; [1]) | infiltration of CD8+ T-cells to the CNS (EAE in WT mice; [1]) | infiltration of myeloid cells to the CNS (EAE in WT mice; [1])
blocked: MMF-Yne labeling of GSDMD in presence of competitor (GSDMD; streptavidin pulldown from clicked lysates) | onset of EAE (clinical scores) (EAE in WT mice; WT mice, fumarate daily after EAE induction)
